Assays:
[1] = system: cultured adult rat retinal ganglion cells; assay: Glutamate-induced toxicity in cultured adult rat retinal ganglion cells (survival by counting Thy-1-positive healthy cells); format: cell-based
Experimental: Cells were treated with the indicated compounds for 3 days. Survival was assayed by counting Thy-1-positive healthy cells. The asterisk * represents a significant difference from the control values by one-way ANOVA analysis of variance between groups, then Dunnett's test.
Adult Sprague-Dawley rats were euthanized by CO2 asphyxiation. Their eyes were enucleated and placed in NEUROBASAL™ medium (Gibco, Gaithersburg, Md.). The retina from each eye was detached and isolated. Retinal cells were dissociated by combining up to 20 retinae with 5 mL of papain solution containing 10 mg papain, 2 mg DL-cysteine, and 2 mg bovine serum albumin in 5 ml of NEUROBASAL™ medium, for 25 min at 37° C., then washed 3 times with 5 mL RGC medium (NEUROBASAL™) medium supplemented as cited in Example 2 and with 1% fetal calf serum. Retinal pieces were triturated by passing through a fire-polished disposable pipet several times until cells were dispersed. The cell suspension was placed onto a poly-D-lysine- and laminin-coated 8-well chambered culture slide. […] The cells were then cultured at 95% air/5% CO2 at 37° C. for three days.
At the end of the incubation period, the cells were fixed and labeled for Thy-1, a RGC marker, by immunocytochemistry. Cell survival was quantified by manually counting Thy-1-positive healthy cells in each well.

[2] = system: quinone reductase, glutathione-S-transferase, and glutathione reductase; details: various cell lines including human adult retinal pigment epithelial cells; cited from earlier work

SMILES | reduction of the surviving cells ([1]; glutamate 100 μM for 3 days, adult rat RGC) | induction of detoxification enzymes [2] | protection from glutamate-induced toxicity (survival of Thy-1-positive healthy cells) ([1]; sulforaphane 0.5 μM with glutamate 100 μM, 3 days, adult Sprague-Dawley rat RGC)
N[C@@H](CCC(=O)O)C(=O)O [glutamate] | 40-60% |  | 
C[S+]([O-])CCCCN=C=S (stereo not drawn) [sulforaphane] |  | known to induce quinone reductase, glutathione-S-transferase, and glutathione reductase | prevented such toxicity

— US20110144127A1, “AGENTS FOR TREATMENT OF GLAUCOMATOUS RETINOPATHY AND OPTIC NEUROPATHY” (ALCON INC., priority 2003, published 2011)
